# Assay results from publication PMC7385619, “A triple action CDK4/6-PI3K-BET inhibitor with augmented cancer cell cytotoxicity” (Cell Discovery, 2020).
# Read-outs that look alike come from different tables or passages of the source.
# Legend:
# Experiment in all cases: KINOMEscan assay (Eurofins DiscoverX)
# Type in all cases: binding
# kinome (kinase panel) [1] = target: T1, kinome (kinase panel) (Homo sapiens, UniProt O76039); settings: CDKL5; 1000 nM; read-out: Percent Control
# T1 construct: purchased Eurofins DiscoverX
# kinome (kinase panel) [2] = target: T2, kinome (kinase panel) (Homo sapiens, UniProt O94921); settings: PFTK1 (Entrez CDK14); 1000 nM; read-out: Percent Control
# T2 construct: purchased Eurofins DiscoverX
# kinome (kinase panel) [3] = target: T3, kinome (kinase panel) (Homo sapiens, UniProt P00533); settings: EGFR; 1000 nM; read-out: Percent Control
# T3 construct: purchased Eurofins DiscoverX
# T3 sequence (P00533 25-1210): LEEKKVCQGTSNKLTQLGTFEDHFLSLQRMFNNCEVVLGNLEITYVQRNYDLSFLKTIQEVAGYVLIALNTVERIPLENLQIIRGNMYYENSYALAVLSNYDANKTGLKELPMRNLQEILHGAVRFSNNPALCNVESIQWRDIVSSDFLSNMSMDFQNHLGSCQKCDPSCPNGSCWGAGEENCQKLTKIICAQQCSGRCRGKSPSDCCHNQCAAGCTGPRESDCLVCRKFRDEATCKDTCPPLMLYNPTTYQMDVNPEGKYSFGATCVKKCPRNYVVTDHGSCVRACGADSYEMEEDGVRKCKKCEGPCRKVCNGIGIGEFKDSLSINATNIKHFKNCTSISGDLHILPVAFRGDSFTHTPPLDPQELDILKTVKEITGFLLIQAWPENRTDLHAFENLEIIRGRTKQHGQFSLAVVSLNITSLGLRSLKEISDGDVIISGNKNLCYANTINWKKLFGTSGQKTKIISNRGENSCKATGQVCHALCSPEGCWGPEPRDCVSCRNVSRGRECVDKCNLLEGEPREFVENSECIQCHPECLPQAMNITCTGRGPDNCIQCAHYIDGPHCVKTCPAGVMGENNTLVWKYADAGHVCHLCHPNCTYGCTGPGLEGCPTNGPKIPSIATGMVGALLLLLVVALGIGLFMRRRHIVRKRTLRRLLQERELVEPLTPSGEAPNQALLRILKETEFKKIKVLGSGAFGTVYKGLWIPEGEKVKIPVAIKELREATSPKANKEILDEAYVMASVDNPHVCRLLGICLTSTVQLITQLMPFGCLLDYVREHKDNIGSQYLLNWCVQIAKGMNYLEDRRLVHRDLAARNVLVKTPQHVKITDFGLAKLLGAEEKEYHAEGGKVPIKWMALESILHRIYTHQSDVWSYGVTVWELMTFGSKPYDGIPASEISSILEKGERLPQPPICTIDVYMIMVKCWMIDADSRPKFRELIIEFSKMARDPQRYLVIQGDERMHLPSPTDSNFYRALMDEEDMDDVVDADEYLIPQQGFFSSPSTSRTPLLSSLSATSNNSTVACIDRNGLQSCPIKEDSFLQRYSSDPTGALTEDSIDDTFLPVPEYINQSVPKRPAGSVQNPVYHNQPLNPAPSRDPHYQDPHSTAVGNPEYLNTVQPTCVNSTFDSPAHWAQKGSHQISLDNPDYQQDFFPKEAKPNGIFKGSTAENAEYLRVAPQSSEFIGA
# kinome (kinase panel) [4] = target: T4, kinome (kinase panel) (Homo sapiens, UniProt P19784); settings: CSNK2A2; 1000 nM; read-out: Percent Control
# T4 construct: purchased Eurofins DiscoverX
# T4 sequence (P19784 whole entry): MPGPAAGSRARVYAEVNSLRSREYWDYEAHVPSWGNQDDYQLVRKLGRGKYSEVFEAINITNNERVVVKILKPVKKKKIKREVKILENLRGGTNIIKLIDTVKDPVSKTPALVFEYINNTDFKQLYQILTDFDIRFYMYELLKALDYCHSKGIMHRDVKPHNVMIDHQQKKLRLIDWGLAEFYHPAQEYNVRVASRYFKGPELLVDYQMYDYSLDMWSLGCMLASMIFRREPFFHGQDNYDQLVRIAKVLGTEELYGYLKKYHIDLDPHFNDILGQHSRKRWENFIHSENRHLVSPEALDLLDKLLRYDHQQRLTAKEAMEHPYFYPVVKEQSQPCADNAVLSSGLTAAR
# kinome (kinase panel) [5] = target: T5, kinome (kinase panel) (Homo sapiens, UniProt P23443); settings: S6K1 (RPS6KB1); 1000 nM; read-out: Percent Control
# T5 construct: purchased Eurofins DiscoverX
# kinome (kinase panel) [6] = target: T6, kinome (kinase panel) (Homo sapiens, UniProt P35968); settings: VEGFR2 (KDR); 1000 nM; read-out: Percent Control
# T6 construct: purchased Eurofins DiscoverX
# kinome (kinase panel) [7] = target: T7, kinome (kinase panel) (Homo sapiens, UniProt P36897); settings: TGFBR1; 1000 nM; read-out: Percent Control
# T7 construct: purchased Eurofins DiscoverX
# kinome (kinase panel) [8] = target: T8, kinome (kinase panel) (Homo sapiens, UniProt P42684); settings: ABL2; 1000 nM; read-out: Percent Control
# T8 construct: purchased Eurofins DiscoverX
# kinome (kinase panel) [9] = target: T9, kinome (kinase panel) (Homo sapiens, UniProt P49760); settings: CLK2; 1000 nM; read-out: Percent Control
# T9 construct: purchased Eurofins DiscoverX
# T9 sequence (P49760 whole entry): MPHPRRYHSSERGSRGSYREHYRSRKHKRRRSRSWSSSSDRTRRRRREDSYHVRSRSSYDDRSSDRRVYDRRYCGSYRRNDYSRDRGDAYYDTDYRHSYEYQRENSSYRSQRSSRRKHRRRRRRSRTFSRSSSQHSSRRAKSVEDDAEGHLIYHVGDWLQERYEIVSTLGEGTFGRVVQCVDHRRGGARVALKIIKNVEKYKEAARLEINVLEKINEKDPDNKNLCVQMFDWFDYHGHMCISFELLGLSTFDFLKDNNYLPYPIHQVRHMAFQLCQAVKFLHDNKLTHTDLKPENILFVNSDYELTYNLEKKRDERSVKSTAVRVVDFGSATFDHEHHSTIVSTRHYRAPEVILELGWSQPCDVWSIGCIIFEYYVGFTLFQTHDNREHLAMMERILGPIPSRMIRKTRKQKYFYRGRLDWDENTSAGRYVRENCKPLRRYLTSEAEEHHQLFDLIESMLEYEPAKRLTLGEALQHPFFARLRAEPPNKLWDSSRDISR
# kinome (kinase panel) [10] = target: T10, kinome (kinase panel) (Homo sapiens, UniProt P49840); settings: GSK3A; 1000 nM; read-out: Percent Control
# T10 construct: purchased Eurofins DiscoverX
# kinome (kinase panel) [11] = target: T11, kinome (kinase panel) (Homo sapiens, UniProt P53671); settings: LIMK2; 1000 nM; read-out: Percent Control
# T11 construct: purchased Eurofins DiscoverX
# kinome (kinase panel) [12] = target: T12, kinome (kinase panel) (Homo sapiens, UniProt P57059); settings: SIK (SIK1); 1000 nM; read-out: Percent Control
# T12 construct: purchased Eurofins DiscoverX
# T12 sequence (P57059 whole entry): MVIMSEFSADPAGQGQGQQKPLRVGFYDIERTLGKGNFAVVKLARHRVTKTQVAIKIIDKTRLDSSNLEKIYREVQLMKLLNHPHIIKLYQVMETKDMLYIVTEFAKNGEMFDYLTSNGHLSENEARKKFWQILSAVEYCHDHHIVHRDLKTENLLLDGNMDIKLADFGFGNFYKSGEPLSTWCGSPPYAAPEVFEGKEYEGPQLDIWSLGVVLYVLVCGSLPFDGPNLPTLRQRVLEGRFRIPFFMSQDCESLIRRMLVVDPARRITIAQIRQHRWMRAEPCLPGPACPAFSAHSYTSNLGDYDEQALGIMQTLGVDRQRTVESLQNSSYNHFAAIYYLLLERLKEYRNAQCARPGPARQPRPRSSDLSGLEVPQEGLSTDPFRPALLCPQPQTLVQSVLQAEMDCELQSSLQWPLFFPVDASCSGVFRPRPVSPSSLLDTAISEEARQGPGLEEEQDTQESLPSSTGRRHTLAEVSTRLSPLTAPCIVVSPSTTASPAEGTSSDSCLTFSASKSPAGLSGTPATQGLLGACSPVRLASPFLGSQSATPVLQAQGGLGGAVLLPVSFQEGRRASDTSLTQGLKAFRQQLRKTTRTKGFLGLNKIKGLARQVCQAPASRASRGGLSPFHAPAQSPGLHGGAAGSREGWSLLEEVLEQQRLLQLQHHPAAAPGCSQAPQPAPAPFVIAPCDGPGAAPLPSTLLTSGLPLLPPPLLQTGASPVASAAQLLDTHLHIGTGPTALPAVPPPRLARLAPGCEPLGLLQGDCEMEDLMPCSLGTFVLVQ
# kinome (kinase panel) [13] = target: T13, kinome (kinase panel) (Homo sapiens, UniProt Q09013); settings: DMPK; 1000 nM; read-out: Percent Control
# T13 construct: purchased Eurofins DiscoverX
# kinome (kinase panel) [14] = target: T14, kinome (kinase panel) (Homo sapiens, UniProt Q13233); settings: MAP3K1; 1000 nM; read-out: Percent Control
# T14 construct: purchased Eurofins DiscoverX
# kinome (kinase panel) [15] = target: T15, kinome (kinase panel) (Homo sapiens, UniProt Q13546); settings: RIPK1; 1000 nM; read-out: Percent Control
# T15 construct: purchased Eurofins DiscoverX
# kinome (kinase panel) [16] = target: T16, kinome (kinase panel) (Homo sapiens, UniProt Q13976); settings: PRKG1; 1000 nM; read-out: Percent Control
# T16 construct: purchased Eurofins DiscoverX
# kinome (kinase panel) [17] = target: T17, kinome (kinase panel) (Homo sapiens, UniProt Q15418); settings: 1000 nM, read-out: Percent Control
# T17 construct: purchased Eurofins DiscoverX
# T17 sequence (Q15418 whole entry): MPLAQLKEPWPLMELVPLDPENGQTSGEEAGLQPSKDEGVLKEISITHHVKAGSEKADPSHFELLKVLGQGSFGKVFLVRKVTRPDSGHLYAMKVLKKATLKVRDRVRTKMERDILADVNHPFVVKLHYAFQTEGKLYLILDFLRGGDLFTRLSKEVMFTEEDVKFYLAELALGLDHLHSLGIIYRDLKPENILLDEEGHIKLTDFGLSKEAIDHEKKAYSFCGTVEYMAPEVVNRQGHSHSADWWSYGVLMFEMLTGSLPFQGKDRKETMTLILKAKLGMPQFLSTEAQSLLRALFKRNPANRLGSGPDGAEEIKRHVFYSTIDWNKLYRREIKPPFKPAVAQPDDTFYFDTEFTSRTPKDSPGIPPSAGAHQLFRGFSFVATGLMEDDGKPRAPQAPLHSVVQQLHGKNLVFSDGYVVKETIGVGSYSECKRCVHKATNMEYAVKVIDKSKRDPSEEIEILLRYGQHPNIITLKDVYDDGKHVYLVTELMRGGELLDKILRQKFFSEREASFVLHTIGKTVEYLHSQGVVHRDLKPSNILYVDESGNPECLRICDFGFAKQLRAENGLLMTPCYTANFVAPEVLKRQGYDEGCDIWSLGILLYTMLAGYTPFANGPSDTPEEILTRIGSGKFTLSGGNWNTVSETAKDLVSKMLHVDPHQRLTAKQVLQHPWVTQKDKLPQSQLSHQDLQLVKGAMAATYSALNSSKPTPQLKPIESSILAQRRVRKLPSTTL
# kinome (kinase panel) [18] = target: T18, kinome (kinase panel) (Homo sapiens, UniProt Q16513); settings: PKN2; 1000 nM; read-out: Percent Control
# T18 construct: purchased Eurofins DiscoverX
# kinome (kinase panel) [19] = target: T19, kinome (kinase panel) (Homo sapiens, UniProt Q32MK0); settings: MLCK (Entrez MYLK3); 1000 nM; read-out: Percent Control
# T19 construct: purchased Eurofins DiscoverX
# kinome (kinase panel) [20] = target: T20, kinome (kinase panel) (Homo sapiens, UniProt Q52WX2); settings: SBK1; 1000 nM; read-out: Percent Control
# T20 construct: purchased Eurofins DiscoverX
# T20 sequence (Q52WX2 whole entry): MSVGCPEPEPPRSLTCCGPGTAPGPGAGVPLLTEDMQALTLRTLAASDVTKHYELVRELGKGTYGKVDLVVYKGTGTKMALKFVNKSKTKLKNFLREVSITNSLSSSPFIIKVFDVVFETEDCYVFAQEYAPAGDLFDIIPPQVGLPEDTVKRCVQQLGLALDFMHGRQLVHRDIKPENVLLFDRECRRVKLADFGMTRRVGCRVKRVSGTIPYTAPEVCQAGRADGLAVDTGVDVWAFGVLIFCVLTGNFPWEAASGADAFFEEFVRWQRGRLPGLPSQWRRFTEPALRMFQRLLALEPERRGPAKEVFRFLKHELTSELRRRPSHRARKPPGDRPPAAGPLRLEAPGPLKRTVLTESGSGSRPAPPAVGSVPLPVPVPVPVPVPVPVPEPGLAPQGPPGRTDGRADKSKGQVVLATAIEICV
# kinome (kinase panel) [21] = target: T21, kinome (kinase panel) (Homo sapiens, UniProt Q8NFD2); settings: ANKK1; 1000 nM; read-out: Percent Control
# T21 construct: purchased Eurofins DiscoverX
# kinome (kinase panel) [22] = target: T22, kinome (kinase panel) (Homo sapiens, UniProt Q8NG66); settings: NEK11; 1000 nM; read-out: Percent Control
# T22 construct: purchased Eurofins DiscoverX
# kinome (kinase panel) [23] = target: T23, kinome (kinase panel) (Homo sapiens, UniProt Q8TDX7); settings: NEK7; 1000 nM; read-out: Percent Control
# T23 construct: purchased Eurofins DiscoverX
# kinome (kinase panel) [24] = target: T24, kinome (kinase panel) (Homo sapiens, UniProt Q8WXR4); settings: MYO3B; 1000 nM; read-out: Percent Control
# T24 construct: purchased Eurofins DiscoverX
# kinome (kinase panel) [25] = target: T25, kinome (kinase panel) (Homo sapiens, UniProt Q96Q40); settings: PFTAIRE2 (Entrez CDK15); 1000 nM; read-out: Percent Control
# T25 construct: purchased Eurofins DiscoverX
# T25 sequence (Q96Q40 whole entry): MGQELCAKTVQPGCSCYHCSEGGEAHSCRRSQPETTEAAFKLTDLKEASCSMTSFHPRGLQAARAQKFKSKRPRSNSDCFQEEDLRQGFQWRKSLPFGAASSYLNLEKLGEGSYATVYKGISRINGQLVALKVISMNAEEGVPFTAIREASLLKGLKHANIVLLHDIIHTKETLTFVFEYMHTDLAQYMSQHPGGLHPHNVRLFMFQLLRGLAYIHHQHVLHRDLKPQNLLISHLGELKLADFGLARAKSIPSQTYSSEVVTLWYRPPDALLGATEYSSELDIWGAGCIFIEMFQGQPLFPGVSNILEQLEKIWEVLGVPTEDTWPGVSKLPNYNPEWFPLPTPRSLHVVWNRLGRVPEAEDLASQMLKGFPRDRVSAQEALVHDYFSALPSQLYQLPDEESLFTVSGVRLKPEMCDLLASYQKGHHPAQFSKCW
# kinome (kinase panel) [26] = target: T26, kinome (kinase panel) (Homo sapiens, UniProt Q9H2G2); settings: SLK; 1000 nM; read-out: Percent Control
# T26 construct: purchased Eurofins DiscoverX
# kinome (kinase panel) [27] = target: T27, kinome (kinase panel) (Homo sapiens, UniProt Q9HC98); settings: NEK6; 1000 nM; read-out: Percent Control
# T27 construct: purchased Eurofins DiscoverX
# kinome (kinase panel) [28] = target: T28, kinome (kinase panel) (Homo sapiens, UniProt Q9UHD2); settings: TBK1; 1000 nM; read-out: Percent Control
# T28 construct: purchased Eurofins DiscoverX
# kinome (kinase panel) [29] = target: T29, kinome (kinase panel) (Homo sapiens, UniProt Q9UPE1); settings: SRPK3; 1000 nM; read-out: Percent Control
# T29 construct: purchased Eurofins DiscoverX
# kinome (kinase panel) [30] = target: T30, kinome (kinase panel) (Homo sapiens, UniProt Q9Y2I7); settings: PIKFYVE; 1000 nM; read-out: Percent Control
# T30 construct: purchased Eurofins DiscoverX
# kinome (kinase panel) [31] = target: T31, kinome (kinase panel) (Homo sapiens, UniProt Q9Y463); settings: DYRK1B; 1000 nM; read-out: Percent Control
# T31 construct: purchased Eurofins DiscoverX
# T31 sequence (Q9Y463 whole entry): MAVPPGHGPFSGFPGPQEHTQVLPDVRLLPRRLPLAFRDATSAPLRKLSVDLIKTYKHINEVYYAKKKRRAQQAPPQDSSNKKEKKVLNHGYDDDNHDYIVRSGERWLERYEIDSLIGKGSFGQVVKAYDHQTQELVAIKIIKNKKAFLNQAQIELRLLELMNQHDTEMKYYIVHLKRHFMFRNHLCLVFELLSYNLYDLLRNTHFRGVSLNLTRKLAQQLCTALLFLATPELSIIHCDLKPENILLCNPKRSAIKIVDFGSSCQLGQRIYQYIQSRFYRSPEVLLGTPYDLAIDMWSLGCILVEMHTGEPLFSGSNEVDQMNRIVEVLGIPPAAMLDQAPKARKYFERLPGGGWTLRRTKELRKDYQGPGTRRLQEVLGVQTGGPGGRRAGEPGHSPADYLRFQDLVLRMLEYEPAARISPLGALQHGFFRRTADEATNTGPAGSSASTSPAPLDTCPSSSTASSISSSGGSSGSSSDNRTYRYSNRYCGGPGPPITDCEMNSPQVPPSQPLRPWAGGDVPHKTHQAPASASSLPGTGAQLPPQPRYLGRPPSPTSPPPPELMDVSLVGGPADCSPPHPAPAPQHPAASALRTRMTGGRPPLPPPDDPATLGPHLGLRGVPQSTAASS
# kinome (kinase panel) [32] = target: T32, kinome (kinase panel) (Mycobacterium tuberculosis, UniProt P9WI81); settings: PKNB(M.tuberculosis) (Entrez pknB); 1000 nM; read-out: Percent Control
# T32 construct: purchased Eurofins DiscoverX
smiles,measurement,setting,value
CN(C)C(=O)c1cc2cnc(Nc3ccc(-c4csc5c(=O)cc(N6CCOCC6)oc45)cc3)nc2n1C1CCCC1 [SRX3177],remaining binding at 1 µM,kinome (kinase panel) [1],65%
same,remaining binding at 1 µM,kinome (kinase panel) [2],73%
same,remaining binding at 1 µM,kinome (kinase panel) [3],100%
same,remaining binding at 1 µM,kinome (kinase panel) [4],5.7%
same,remaining binding at 1 µM,kinome (kinase panel) [5],95%
same,remaining binding at 1 µM,kinome (kinase panel) [6],87%
same,remaining binding at 1 µM,kinome (kinase panel) [7],100%
same,remaining binding at 1 µM,kinome (kinase panel) [8],81%
same,remaining binding at 1 µM,kinome (kinase panel) [9],92%
same,remaining binding at 1 µM,kinome (kinase panel) [10],60%
same,remaining binding at 1 µM,kinome (kinase panel) [11],92%
same,remaining binding at 1 µM,kinome (kinase panel) [12],94%
same,remaining binding at 1 µM,kinome (kinase panel) [13],100%
same,remaining binding at 1 µM,kinome (kinase panel) [14],40%
same,remaining binding at 1 µM,kinome (kinase panel) [15],96%
same,remaining binding at 1 µM,kinome (kinase panel) [16],100%
same,remaining binding at 1 µM,kinome (kinase panel) [17]; RSK1(Kin.Dom.1-N-terminal) (RPS6KA1),100%
same,remaining binding at 1 µM,kinome (kinase panel) [17]; RSK1(Kin.Dom.2-C-terminal) (RPS6KA1),100%
same,remaining binding at 1 µM,kinome (kinase panel) [18],70%
same,remaining binding at 1 µM,kinome (kinase panel) [19],100%
same,remaining binding at 1 µM,kinome (kinase panel) [20],67%
same,remaining binding at 1 µM,kinome (kinase panel) [21],50%
same,remaining binding at 1 µM,kinome (kinase panel) [22],99%
same,remaining binding at 1 µM,kinome (kinase panel) [23],100%
same,remaining binding at 1 µM,kinome (kinase panel) [24],100%
same,remaining binding at 1 µM,kinome (kinase panel) [25],90%
same,remaining binding at 1 µM,kinome (kinase panel) [26],38%
same,remaining binding at 1 µM,kinome (kinase panel) [27],100%
same,remaining binding at 1 µM,kinome (kinase panel) [28],16%
same,remaining binding at 1 µM,kinome (kinase panel) [29],35%
same,remaining binding at 1 µM,kinome (kinase panel) [30],2.4%
same,remaining binding at 1 µM,kinome (kinase panel) [31],56%
same,remaining binding at 1 µM,kinome (kinase panel) [32],40%
